Patent US12280022B2, “Method of treating major depressive disorder” (Clexio Biosciences Ltd., priority 2018, dated 2025)

What was measured:
[1] = test system: human peripheral blood lymphocytes (HPBL); details: definitive assay; non-activated 4- and 20-hour treatment conditions; any dose
Procedure: The clastogenic potential of esketamine was evaluated in the in vitro mammalian chromosome aberration test using human peripheral blood lymphocytes (HPBL) in both the absence and presence of an induced metabolic activation system (the 9000 g supernatant [S9] microsomal fraction of liver homogenate from rats exposed to Aroclor-1254).
The study was conducted in 2 phases, with a preliminary toxicity test used to determine the appropriate concentrations for the definitive chromosomal aberration assay. Water was used as a negative (vehicle) control. Toxicity (defined as ≥45% reduction in MI relative to the vehicle control) was evaluated at 9 concentrations, ranging from 0.0238 to 238 μg/ml, after exposure of HPBL to esketamine for 20 hours in the absence of S9 activation, or for 4 hours, either in the presence or absence of S9 activation, followed by a 16-hour recovery period.
The definitive chromosome aberration assay evaluated HPBL cells after exposure to esketamine for 20 hours in the absence of S9 activation, or for 4 hours, either in the presence of absence of S9 activation, followed by a 16-hour recovery. Positive controls for chromosomal aberrations in non-activated and S9-activated evaluations, respectively, consisted of mitomycin C (MMC, 0.6 and 0.3 μg/mL for the 4- and 20-hour exposures, respectively) and cyclophosphamide (CP, 2.5, 5, and 7.5 μg/mL). […]

male Sprague Dawley rats = experiment: 7-day forced swim test; format: in vivo; details: intraperitoneal
Procedure: Groups of, 6-7 week old, male Sprague Dawley rats were administered esketamine by intraperitoneal injection and their behavioral despair assessed by a forced swim test. The animals, in cohorts of 10, were administered either a single dose of 15 mg/kg esketamine, 7 daily doses of either 7.5 or 15 mg/kg esketamine or a vehicle control, and the test performed 30 minutes after dosing. Statistical evaluation was performed using an ordinary One-Way ANOVA, t Test and an Uncorrected Fisher's LSD comparisons test.

[2] = test system: healthy male and female subjects; experiment: Single dose crossover study in healthy volunteers: treatment-emergent adverse events; format: in vivo, human
Excerpt: A total of 128 TEAEs (treatment-emergent adverse event) were reported by 15 of 16 (94%) subjects of which 79 TEAEs reported by 14 of 16 (88%) subjects were to be related to the study drug. Overall, a total of 14 of 128 TEAEs reported by 4 (25%) subjects were of moderate severity and 114 of 128 TEAEs reported by 15 (94%) subjects were of mild severity. […] The most frequently occurring adverse events (reported more than twice) were headache, dizziness, hypokinesia, feeling abnormal, fatigue, euphoric mood inappropriate affect, nausea and hyperhidrosis. Table 4 presents the frequency of the most frequently reported related TEAEs as a percentage of the subjects that experienced an adverse effect per treatment.

liver of Crl:CD(SD) rats = experiment: In vivo single cell gel electrophoresis (comet) assay in liver; details: male and female rats; oral gavage
[3] = test system: animal models of depression; details: without psychotomimetic side effects and abuse liability; cited from earlier work

CN[C@]1(c2ccccc2Cl)CCCCC1=O [esketamine, (2S)-2-(2-Chlorophenyl)-2-(methylamino)cyclohexanone]
cytotoxicity (≥45% reduction in mitotic index relative to the vehicle control) [1]: not observed
antidepressant-like effect of continuous 7-day treatment vs single acute dose at the same dose levels (male Sprague Dawley rats): stronger antidepressant-like effect
Dizziness, related TEAE, subjects ([2]; 0.3 mg/kg iv): 6%
Euphoric mood, related TEAE, subjects ([2]; 0.3 mg/kg iv): 19%
Fatigue, related TEAE, subjects ([2]; 0.3 mg/kg iv): 6%
Feeling abnormal, related TEAE, subjects ([2]; 0.3 mg/kg iv): 13%
Headache, related TEAE, subjects ([2]; 0.3 mg/kg iv): 19%
Hypokinesia, related TEAE, subjects ([2]; 0.3 mg/kg iv): 6%
Inappropriate affect, related TEAE, subjects ([2]; 0.3 mg/kg iv): 6%
Nausea, related TEAE, subjects ([2]; 0.3 mg/kg iv): 6%
Feeling abnormal, related TEAE, subjects ([2]; 20 mg oral solution): 19%
Headache, related TEAE, subjects ([2]; 20 mg oral solution): 19%
Inappropriate affect, related TEAE, subjects ([2]; 20 mg oral solution): 6%
Dizziness, related TEAE, subjects ([2]; 20 mg oral tablet): 13%
Fatigue, related TEAE, subjects ([2]; 20 mg oral tablet): 7%
Feeling abnormal, related TEAE, subjects ([2]; 20 mg oral tablet): 7%
Hyperhidrosis, related TEAE, subjects ([2]; 20 mg oral tablet): 7%
Dizziness, related TEAE, subjects ([2]; 100 mg oral tablet): 13%
Euphoric mood, related TEAE, subjects ([2]; 100 mg oral tablet): 13%
Feeling abnormal, related TEAE, subjects ([2]; 100 mg oral tablet): 20%
Headache, related TEAE, subjects ([2]; 100 mg oral tablet): 13%
Hyperhidrosis, related TEAE, subjects ([2]; 100 mg oral tablet): 7%
Hypokinesia, related TEAE, subjects ([2]; 100 mg oral tablet): 13%
Inappropriate affect, related TEAE, subjects ([2]; 100 mg oral tablet): 7%
Nausea, related TEAE, subjects ([2]; 100 mg oral tablet): 20%
AE leading to withdrawal from the study ([2]; one subject (Subject 11) of 16, after first treatment period): mild hyperbilirubinemia
DNA strand breaks in the liver (liver of Crl:CD(SD) rats): evidence of causing an increase in DNA strand breaks

CN[C@@]1(c2ccccc2Cl)CCCCC1=O [(R)-ketamine, (2R)-2-(2-Chlorophenyl)-2-(methylamino)cyclohexanone]
antidepressant effects compared with esketamine [3]: greater potency and longer-lasting antidepressant effects
